This is an account of results in ChEMBL document CHEMBL4229469, “Small molecule scaffolds that disrupt the Rev1-CT/RIR protein-protein interaction” (Bioorg Med Chem, 2018).

Series [1] is described as follows: Drug metabolism in human liver microsomes assessed as dehydrogenation at 10 uM after 30 to 60 mins by LC-MS/MS analysis. In kind it is ADME, microsome. (In general: Microsomes from liver hold many membrane-bound enzymes, among them those of drug oxidation.)
The nature of series [2]: Drug metabolism in human liver microsomes assessed as demethylation by measuring 2-(1-acetylpiperidine-4-carboxamido)-5-propylthiophene-3-carboxylic acid formation at 10 uM after 30 to 60 mins by LC-MS/MS analysis. The series is classed as ADME, microsome.
The nature of series [3]: Intrinsic clearance in human liver microsomes at 1 uM. In kind it is ADME, microsome.
A short description of series [4]: Ratio of solubility in pH 7.4 phosphate buffered saline to pH 4 phosphate buffered saline. In kind it is physicochemical. The settings on record: buffer.
A short description of series [5]: Permeability of the compound by PAMPA. The series is classed as ADME. For orientation: In PAMPA a lipid-coated filter parts donor from acceptor wells.
Series [6] can be described thus: Drug metabolism in human liver microsomes assessed as oxidation at 10 uM after 30 to 60 mins by LC-MS/MS analysis. The series is classed as ADME, microsome.
Series [7] relates to U2OS. In words: Potentiation of cisplatin-induced cytotoxicity in cisplatin-resistant human U2OS cells assessed as cisplatin GI50 at 50 uM after 72 hrs by MTS assay (reference value: 23.9 +/- 1.9 uM). In kind it is functional.
A short description of series [8]: Drug metabolism in human liver microsomes assessed as oxidation and dehydrogenation at 10 uM after 30 to 60 mins by LC-MS/MS analysis. The series is classed as ADME, microsome.
Series [9] concerns U2OS. In words: Potentiation of cisplatin-induced cytotoxicity in cisplatin-resistant human U2OS cells assessed as cisplatin GI50 at 25 uM after 72 hrs by MTS assay (reference value: 23.9 +/- 1.9 uM). The series is classed as functional. A general note: Tetrazolium dyes change colour on reduction, which living cells bring about.
In another series the target is T1, DNA repair protein REV1 (Homo sapiens, UniProt Q9UBZ9).
T1 sequence (Q9UBZ9 whole entry): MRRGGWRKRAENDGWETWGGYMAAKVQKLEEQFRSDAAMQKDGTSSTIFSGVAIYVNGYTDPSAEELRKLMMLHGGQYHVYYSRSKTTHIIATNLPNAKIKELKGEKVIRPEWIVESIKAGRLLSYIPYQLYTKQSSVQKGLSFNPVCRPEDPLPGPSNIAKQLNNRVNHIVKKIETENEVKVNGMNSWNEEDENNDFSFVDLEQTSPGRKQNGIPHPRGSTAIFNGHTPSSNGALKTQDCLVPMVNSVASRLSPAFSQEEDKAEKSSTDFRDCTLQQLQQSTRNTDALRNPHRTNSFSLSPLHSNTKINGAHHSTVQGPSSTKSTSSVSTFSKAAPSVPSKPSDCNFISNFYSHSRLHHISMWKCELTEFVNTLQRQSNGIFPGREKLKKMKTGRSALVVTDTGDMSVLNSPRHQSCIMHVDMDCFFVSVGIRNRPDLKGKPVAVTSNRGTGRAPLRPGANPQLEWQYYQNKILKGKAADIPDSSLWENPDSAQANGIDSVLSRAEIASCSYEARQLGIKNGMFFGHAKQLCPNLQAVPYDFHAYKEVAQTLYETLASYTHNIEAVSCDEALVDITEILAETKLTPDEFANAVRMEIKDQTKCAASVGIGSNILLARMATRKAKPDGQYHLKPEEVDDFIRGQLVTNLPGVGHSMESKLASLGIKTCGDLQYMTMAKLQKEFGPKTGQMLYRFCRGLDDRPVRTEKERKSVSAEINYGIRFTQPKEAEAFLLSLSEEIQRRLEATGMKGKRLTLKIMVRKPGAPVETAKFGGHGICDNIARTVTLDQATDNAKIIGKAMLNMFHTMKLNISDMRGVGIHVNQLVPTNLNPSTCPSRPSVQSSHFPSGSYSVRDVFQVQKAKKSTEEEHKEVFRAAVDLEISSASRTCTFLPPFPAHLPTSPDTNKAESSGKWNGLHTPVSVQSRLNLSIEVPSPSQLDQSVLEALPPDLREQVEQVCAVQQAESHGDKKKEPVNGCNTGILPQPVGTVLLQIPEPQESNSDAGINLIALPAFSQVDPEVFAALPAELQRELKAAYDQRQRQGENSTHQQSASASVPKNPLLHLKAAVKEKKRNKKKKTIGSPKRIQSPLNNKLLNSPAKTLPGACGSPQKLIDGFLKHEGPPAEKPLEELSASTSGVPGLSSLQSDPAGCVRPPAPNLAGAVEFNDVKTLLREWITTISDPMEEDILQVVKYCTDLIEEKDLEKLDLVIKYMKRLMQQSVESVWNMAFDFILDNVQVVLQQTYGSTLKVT
In words: Displacement of FAM-labelled polkappa-RIR peptide from recombinant human C-terminal Rev1 (1158 to 1251 residues) expressed in Escherichia coli BL21(DE3) after 1 hr by fluorescence polarization assay.

Series [10] is described as follows: Solubility of the compound in pH 4 phosphate buffered saline.
A short description of series [11]: Stability of the compound in pH 7.4 phosphate buffered saline assessed as parent compound remaining at 5 uM. The series is classed as physicochemical. The note with it: read-out: Stability.
Series [12] has as its target T2, DNA repair protein REV1 (Homo sapiens) (UniProt Q9UBZ9).
T2 sequence (whole entry): T1 sequence (Q9UBZ9 whole entry)
In words: Displacement of FAM-labelled polkappa-RIR peptide from recombinant human C-terminal Rev1 (1158 to 1251 residues) expressed in Escherichia coli BL21(DE3) at 10 uM after 1 hr by fluorescence polarization assay relative to control.

Series [13] can be described thus: Solubility of the compound in pH 7.4 phosphate buffered saline.
Series [14] in a line: Growth inhibition of cisplatin-resistant human U2OS cells after 72 hrs by MTS assay. In kind it is cell-based.
The nature of series [15]: Drug metabolism in human liver microsomes assessed as hydrolysis by measuring methyl 2-(piperidine-4-carboxamido)-5-propylthiophene-3-carboxylate formation at 10 uM after 30 to 60 mins by LC-MS/MS analysis. The series is classed as ADME, microsome.

≈ marks a conversion by molar mass, not a printed value.

The term GI50 denotes the concentration that inhibits growth by half. In general, IC50 refers to the concentration at which inhibition is half-maximal. As a reminder, the Kd is the equilibrium constant for the complex coming apart. In general, Ki refers to a measure of affinity in units of concentration, obtained from inhibition or displacement. As a reminder, the solubility is how much of the substance goes into solution per volume. A word on the inhibition: it is the percentage by which the read-out fell short of the control. In the case of `CCCc1cc(C(=O)OC)c(NC(=O)C2CCN(C(C)=O)CC2)s1`, the Drug metabolism entry in [1], in series [2], in series [6], in series [8] and in [15] was “Metabolite_Detected” in each case. The CLH in series [3] was found to be 18.8 µL/min/mg. Besides, the Ratio in series [4] is listed as 3. Besides, the “log(permeability)” value in series [5] is -4.5. Moreover, the GI50 with U2OS [7] amounted to 19.6 µM; with U2OS [9] it was 12.6 µM. The IC50 on DNA repair protein REV1 is 4.1 µM. At DNA repair protein REV1, the Kd was determined as 3.5 µM. In addition, the Ki at DNA repair protein REV1 came to 3.6 µM. Moreover, the solubility in [10] worked out at 21.1 µM (≈ 7.44 µg/mL); in series [13] it was 63.3 µM (≈ 22.3 µg/mL). For the same molecule, the remaining at 5 µM in [11] turned out to be 95%. In addition, in series [12], the inhibition was greater than 85%. In [14], this molecule displayed a GI50 at 72 h greater than 100 µM.
